Laboratory results reported in US6365549B2, “Methods of blocking an ethylene response in plants using cyclopropene derivatives” (North Carolina State University, priority 1999, dated 2002).

What was measured:
Type in all cases: in vivo
banana [1] = assay: Minimum concentration protecting bananas from 333 μl/l ethylene (short-chain cyclopropenes injected as gas); conditions: 24 hours exposure to compound as gas in 3-liter jar, then 333 μl/l ethylene 12-15 hours, observed for ripening
Method: To obtain the minimum concentration that protected bananas from 333 μl/l of ethylene, compounds described in U.S. Pat. No. 5,518,988 to Sisler et al. were applied to bananas according to the methods setforth herein. A known amount of an active compound was injected as a gas into a 3-liter jar containing a banana. The jar was sealed and the banana was removed after 24 hours. At the end of exposure, the banana was treated with 333 pill of ethylene in a 3-liter jar for 12-15 hours. It was then observed for ripening. The minimum concentration is the minimum concentration that protected the banana from 333 μl/l of ethylene. Ten microliters/liter of ethylene is usually considered to be a saturating amount.

banana [2] = assay: Time of protection (insensitivity to ethylene) of bananas, short-chain cyclopropenes; conditions: saturating amount (at least 10 times minimum) for 24 hours, daily challenge with 333 μl/l ethylene 12-15 hours
Method: (§1) To obtain the time of protection, bananas were exposed to a saturating amount of the compound for 24 hours (this was done as above and at least 10 times the minimum protection amount was used). After exposure, bananas were removed from the jars and each day individual bananas were exposed to 333 pill of ethylene for 12-15 hours. The day the bananas responded to ethylene was recorded as the protection time.

[3] = system: Patio variety tomato seedlings; assay: Tomato epinasty test, spray application treatment; conditions: applied as a spray; ethylene 10 ppm v/v; scale of 0 to 10, 10 complete protection
Method: The test procedure is designed to determine the ability of an compound according to the present invention to block the epinastic growth response induced by ethylene in tomato plants when the compound is administered either as a volatile gas or as a component of a spray solution.
Treatment chambers are of an appropriate size for the test plants and are airtight. Each is fitted with a reusable septum to be used for injection of ethylene.
Test plants are Patio variety tomato seedlings planted two plants per three inch square plastic pot.
Spray application treatment entails using a DeVilbiss atomizer to completely cover all foliage and stems of two pots of Patio var. tomato plants with the appropriate amount of experimental compound dissolved in 10% acetone/90% water with 0.05% Silwett L-77 surfactant. Plants are air-dried in a drying hood for four hours then transferred to a 4.8 L polystyrene chamber which is sealed.
Ethylene gas equal to 10 ppm v/v final concentration is injected into the sealed chamber. Sixteen hours later the chambers are opened in an exhaust hood, allowed to air and the plants scored visually for the degree of protection against ethylene-induced epinasty conferred by the experimental compound when compared to ethylene treated and untreated controls on a scale of 0 to 10. A rating of 10 means complete protection. […]

banana [4] = assay: Minimum concentration protecting bananas from 333 μl/l ethylene (compound on filter paper in 3-liter jar)
Method: To obtain the minimum concentration that protected bananas from 333 μl/l of ethylene, compounds according to the present invention were applied to bananas according to the method described herein. A known amount of the active compound was placed on filter paper in a 3-liter jar to facilitate evaporation into the vapor state. The compounds were applied in an ethyl ether solution because the amount used was potentially too small to apply unless they were in solution. The amount of ether (about 10 μl in 3 l) was without effect when applied alone on a banana contained in a 3-liter jar. The jar was sealed and the banana was removed after 4 hours of exposure. At the end of exposure, the banana was treated with 333 μl/l of ethylene in a 3-liter jar for 12-15 hours. It was then observed for ripening. The minimum concentration is the concentration that protected the bananas from 333 μl/l of ethylene. Ten microliters/liter of ethylene is usually considered to be a saturating amount. This procedure was repeated for 8-, 24- and 48-hour treatment times to determine the minimum concentration of active compounds of the present invention needed to provide protection from 333 μl/l of ethylene for a given treatment time.

banana [5] = assay: Time of protection (insensitivity to ethylene) of bananas, compounds of the invention; conditions: saturating amount (at least 10 times minimum) for 24 hours, daily challenge with 333 μl/l ethylene 12-15 hours
Method: as §1, with “done as described in Example 1 above and” for “done as above and”, “to 333 μl/l of ethylene” for “to 333 pill of ethylene”

[6] = system: Patio variety tomato seedlings; assay: Tomato epinasty test, volatile gas treatment; conditions: Gas 10 ppm; ethylene 10 ppm v/v; scale of 0 to 10, 10 complete protection, 0 no protection
Method: The test procedure is designed to determine the ability of an compound according to the present invention to block the epinastic growth response induced by ethylene in tomato plants when the compound is administered either as a volatile gas or as a component of a spray solution. Treatment chambers are of an appropriate size for the test plants and are airtight. Each is fitted with a reusable septum to be used for injection of ethylene. Test plants are Patio variety tomato seedlings planted two plants per three inch square plastic pot. Volatile gas treatment entails placing two pots of Patio var. tomatoes into a polystyrene 4.8 L volume treatment chamber along with one-half (upper or lower section) of a 50×9 mm plastic Petri dish containing a Gelman filter pad. The appropriate amount of experimental compound, dissolved in 1.0 ml acetone, is pipetted onto the filter pad and the chamber immediately sealed. Four hours later ethylene gas equal to 10 ppm v/v final concentration is injected into the sealed chamber. Sixteen hours later the chambers are opened in an exhaust hood, allowed to air and the plants scored visually for the degree of protection against ethylene-induced epinasty conferred by the experimental compound when compared to ethylene treated and untreated controls on a scale of 0 to 10. A rating of 10 means complete protection. A rating of 0 means no protection from the effects of ethylene.

[7] = Table 2 (values equal the 24-hour treatment of Table 1)
[8] = treatment time 4 hours, then 333 μl/l ethylene 12-15 hours
[9] = treatment time 8 hours, then 333 μl/l ethylene 12-15 hours
[10] = treatment time 24 hours, then 333 μl/l ethylene 12-15 hours
[11] = treatment time 48 hours, then 333 μl/l ethylene 12-15 hours

1-ethylcyclopropene [1-ethylcyclopropene (1-ECP)]
Minimum Concentration (banana [1]): 4 nl/l
Time of Insensitivity (banana [2]): 12 days

1-methylcyclopropene [1-methylcyclopropene (1-MCP)]
Minimum Concentration (banana [1]): 0.7 nl/l
Time of Insensitivity (banana [2]): 12 days

CCCCC1=CCC1 [1-butylcyclobutene, reference compound]
Protection against ethylene-induced epinasty, rating [3]: 5

CCCCC1=CC1 [1-butylcyclopropene (1-BCP), 1-butylcyclopropene]
Minimum Concentration (banana [1]): 3 nl/l
Time of Insensitivity (banana [2]): 12 days

CCCCCC1=CCC1 [1-pentylcyclobutene]
Protection against ethylene-induced epinasty, rating [3]: 10

CCCC1=CC1 [1-propylcyclopropene (1-PCP), 1-propylcyclopropene]
Minimum Concentration (banana [1]): 6 nl/l
Time of Insensitivity (banana [2]): 12 days

CCCCCCC1=CC1 [Compound 1, 1-Hexyl-cyclopropene]
Minimum Concentration (banana [4]; [7]): 0.4 nl/l
Minimum Concentration (banana [4]; [8]): 12.0 nl/l
Minimum Concentration (banana [4]; [9]): 0.8 nl/l
Minimum Concentration (banana [4]; [10]): 0.4 nl/l
Minimum Concentration (banana [4]; [11]): 0.3 nl/l
Time of Insensitivity (banana [5]): 20 days
Protection against ethylene-induced epinasty, rating [6]: 10

CCCCCCCCC1=CC1 [Compound 23, 1-octylcyclopropene]
Minimum Concentration (banana [4]; [7]): 0.3 nl/l
Minimum Concentration (banana [4]; [8]): 0.8 nl/l
Minimum Concentration (banana [4]; [9]): 0.45 nl/l
Minimum Concentration (banana [4]; [10]): 0.3 nl/l
Minimum Concentration (banana [4]; [11]): 0.25 nl/l
Time of Insensitivity (banana [5]): 25 days
Protection against ethylene-induced epinasty, rating [6]: 10

cyclopropene [cyclopropene (CP)]
Minimum Concentration (banana [1]): 0.7 nl/l
Time of Insensitivity (banana [2]): 12 days
